Experimental data as given in patent WO2023227069A1, “Polidocanol with single molecular weight, and use thereof” (Jenkem Technology Co Ltd, priority 2022, dated 2023).
Like-named read-outs stand apart in the source and are kept apart here.

Key:
[1] = system: HUVEC (human umbilical vein endothelial cells); assay: Cytotoxicity on HUVEC (CCK8), IC50 of polidocanols with different chain lengths; format: cell-based; conditions: in words, values of Table 8 not in this copy
[2] = Foaming efficiency of 1% solutions (foam drainage, half-life, coalescence); format: physicochemical; conditions: 1% solution, 20 pumps
[3] = system: marginal ear vein of rabbits; assay: Venous pathological sections 14 days after injection into rabbit marginal ear vein; format: in vivo, New Zealand rabbit; conditions: for Pathological score of rabbit ear blood vessels compared with positive low-dose control group: in words
rabbit ear marginal vein = assay: Venous sclerosis after single injection of foam preparation into rabbit marginal ear vein (effective rate, appearance); format: in vivo, New Zealand rabbit; conditions: for Effective rate of venous sclerosis compared with positive control low-dose group: in words
[4] = 14 days after intravenous injection into rabbit ear margin

Compound	IC50 value compared with polidocanol group [1]	Pathological changes in blood vessels, high magnification [3]	Pathological changes in blood vessels, low magnification [3]	Pathological score of rabbit ear blood vessels compared with positive low-dose control group [3]	Effective rate of venous sclerosis (rabbit ear marginal vein; [4])	Effective rate of venous sclerosis compared with positive control low-dose group (rabbit ear marginal vein; 14 days)	Effective rate of venous sclerosis compared with positive control low-dose group (rabbit ear marginal vein; 21 days)	also measured
CCCCCCCCCCCCOCCOCCOCCOCCOCCOCCOCCOCCOCCOCCOCCOCCOCCOCCOCCOCCOCCOCCOCCOCCOCCOCCOCCOCCO [DD-PEG24-OH]	greater than that of the polidocanol group	–	–	–	–	–	–	Foam coalescence time (FCT), time for foam to completely disappear [2]: about 4.25 min
CCCCCCCCCCCCOCCOCCOCCOCCOCCOCCOCCOCCOCCO [DD-PEG9-OH]	smaller than those of the polidocanol group	–	–	–	–	–	–	Pathological score of rabbit ear blood vessels compared with positive low-dose control group ([3]; P9 high-dose group): higher than those of the positive low-dose control group; Pathological score of rabbit ear blood vessels compared with positive low-dose control group ([3]; P9 low-dose group): higher than those of the positive low-dose control group; Pathological changes in blood vessels, high magnification ([3]; high-dose group): a large number of fibroblast proliferations can be seen in the lumen, and red blood cells are scattered among local fibroblasts; new capillaries and macrophages that phagocytose hemosiderin can be seen locally; Pathological changes in blood vessels, low magnification ([3]; high-dose group): The tissue structure of each layer of the wall is unclear and the blood vessel lumen is occluded; Pathological changes in blood vessels, high magnification ([3]; low-dose group): a large number of fibroblast proliferations can be seen in the lumen, and red blood cells are scattered among local fibroblasts; new capillaries and macrophages that phagocytose hemosiderin can be seen locally; Pathological changes in blood vessels, low magnification ([3]; low-dose group): The tissue structure of each layer of the wall is unclear and the blood vessel lumen is occluded; Appearance of veins (rabbit ear marginal vein; 14 days after administration, low-dose group): some Blood vessels are blocked; Effective rate of venous sclerosis (rabbit ear marginal vein; 14 days, P9 high-dose group): above 83.33%; Effective rate of venous sclerosis compared with positive control low-dose group (rabbit ear marginal vein; 14 days, P9 high-dose group): not lower than the positive control low-dose group; Effective rate of venous sclerosis (rabbit ear marginal vein; 14 days, P9 low-dose group): above 83.33%; Effective rate of venous sclerosis compared with positive control low-dose group (rabbit ear marginal vein; 14 days, P9 low-dose group): not lower than the positive control low-dose group; Appearance of veins (rabbit ear marginal vein; 21 days after administration, low-dose group): some blood vessels in the rabbit ear Completely blocked; Effective rate of venous sclerosis compared with positive control low-dose group (rabbit ear marginal vein; 21 days, P9 high-dose group): higher than the positive control low-dose group; Effective rate of venous sclerosis compared with positive control low-dose group (rabbit ear marginal vein; 21 days, P9 low-dose group): higher than the positive control low-dose group
CCCCCCCCCCCCOCCOCCOCCOCCOCCOCCOCCOCCOCCOCCOCCO [DD-PEG11-OH]	smaller than those of the polidocanol group	a large number of fibroblast proliferations can be seen in the lumen, and red blood cells are scattered among local fibroblasts; new capillaries and macrophages that phagocytose hemosiderin can be seen locally	The tissue structure of each layer of the wall is unclear and the blood vessel lumen is occluded	higher than those of the positive low-dose control group	above 83.33%	not lower than the positive control low-dose group	higher than the positive control low-dose group	–
CCCCCCCCCCCCOCCOCCOCCOCCO [DD-PEG4-OH]	greater than that of the polidocanol group	–	–	–	–	–	–	Foam half-life time (FHT), in words ([2]; even if a small amount of foam is formed): disappear in a very short time; Foam formation ([2]; in words, listed as P4): it is difficult for the P4 sample to form foam
CCCCCCCCCCCCOCCOCCOCCOCCOCCOCCOCCOCCOCCOCCOCCOCCO [DD-PEG12-OH]	smaller than those of the polidocanol group	–	–	–	–	–	–	–
CCCCCCCCCCCCOCCOCCOCCOCCOCCOCCOCCOCCO [DD-PEG8-OH]	smaller than those of the polidocanol group	a large number of fibroblast proliferations can be seen in the lumen, and red blood cells are scattered among local fibroblasts; new capillaries and macrophages that phagocytose hemosiderin can be seen locally	The tissue structure of each layer of the wall is unclear and the blood vessel lumen is occluded	higher than those of the positive low-dose control group	above 83.33%	not lower than the positive control low-dose group	higher than the positive control low-dose group	Appearance of veins (rabbit ear marginal vein; 14 days after administration): some Blood vessels are blocked; Appearance of veins (rabbit ear marginal vein; 21 days after administration): some blood vessels in the rabbit ear Completely blocked
CCCCCCCCCCCCOCCOCCOCCOCCOCCOCCOCCOCCOCCOCCO [DD-PEG10-OH]	smaller than those of the polidocanol group	a large number of fibroblast proliferations can be seen in the lumen, and red blood cells are scattered among local fibroblasts; new capillaries and macrophages that phagocytose hemosiderin can be seen locally	The tissue structure of each layer of the wall is unclear and the blood vessel lumen is occluded	higher than those of the positive low-dose control group	above 83.33%	not lower than the positive control low-dose group	higher than the positive control low-dose group	Foam drainage time (FDT), precipitation time of liquid, in words ([2]; relative to other samples): relatively slow
